Results on four molecules are retold here after US12421216B2, “Voruciclib polymorphs and methods of making and using thereof” (MEI PHARMA, INC., priority 2019, dated 2025).

Converted amounts (≈) assume the structure as drawn. “Also recorded” adds a separate entry of the source. Bounds are passed on as bounds.

What all share (type): physicochemical
Series [1] is described as follows: Physical stability of solid forms upon drying under vacuum, HT-XRPD. The following applies: for Physical stability upon drying under deep/high vacuum: oxalate, phosphate, malonate forms, 5 mbar, 18 h; for Solid forms Vacuum: form after drying under deep vacuum (5 mbar, 18 h), HT-XRPD. How it is done: (§1) Amorphous voruciclib oxalate salt, generated by freeze-drying, was used to start the thermocycling experiments. Suspensions were prepared in the selected solvent systems at RT. Subsequently, the mixtures were subjected to a temperature profile. After the temperature profile, the solids were separated from the solutions by centrifugation and were dried at ambient conditions and under deep vacuum before being harvested and analyzed by HT-XRPD. The liquid phases were also dried under deep vacuum before being harvested and analyzed by HT-XRPD. All solids were exposed to AAC (40° C./75% RH, 2 days).
After the temperature profile, the solids were separated from the liquids by centrifugation and the solid phase was dried at ambient conditions and under deep vacuum (5 mbar) before being harvested and analyzed by HT-XRPD. The liquid phases were dried under deep vacuum (5 mbar) and the recovered solids were analyzed by HT-XRPD. All solids were then exposed to accelerated aging conditions (40° C./75% RH, 2 days) followed by HT-XRPD re-analysis.
as §1, with “voruciclib phosphate” for “voruciclib oxalate”, “profile. Upon completion of” for “profile. After”, “dried under” for “dried at”
After the temperature profile, the solids were separated from the liquids by centrifugation and the solid phase was dried under ambient conditions and under deep vacuum (5 mbar, 18 h) before being harvested and analyzed by HT-XRPD. The liquid phases were dried under deep vacuum (5 mbar, 18 h) and the recovered solids were analyzed by HT-XRPD. All solids were then exposed to accelerated aging conditions (40° C./75% RH, 2 days) followed by HT-XRPD re-analysis.
Amorphous voruciclib malonate salt, generated by freeze-drying, was used to start the thermocycling experiments. Suspensions were prepared in the selected solvent systems at RT and were subjected to three thermocycles between 50 and 5° C., followed by aging at 25° C. for 3 days. Upon completion of the aging time, the solids were separated from the liquids by centrifugation and they were dried at ambient conditions and under deep vacuum (5 mbar) before being harvested and analyzed by HT-XRPD.
After the temperature profile the solids were separated from the solution by centrifugation and they were dried at ambient conditions and under deep vacuum before being harvested and analyzed by HT-XRPD.

Series [2] can be described thus: Physical stability upon exposure to accelerated aging conditions (AAC, 40° C./75% RH), re-analysis by HT-XRPD. The settings on record: for Physical stability upon exposure to AAC: HT-XRPD before and after; for Solid forms Vacuum AAC: vacuum-dried solids after AAC (40° C./75% RH, 2 days).
Series [3] in a line: Solubility of salts in water and in 0.2 M phosphate buffer pH 6 at 37° C. after 4 hours (HPLC-DAD). The following applies: for pH (4 h): pH at end of equilibration. In a few lines:
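About 5 mg of salt received 200 μL aliquots of water or 0.2 M phosphate buffer pH 6, up to 1 mL, and was stirred at 37 °C for 4 h. After centrifugation and 0.2 […] PTFE filtration, dissolved concentration was determined by HPLC-DAD against voruciclib calibration, and final pH was recorded.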

Series [4] in a line: Thermal stability of the free base in solution (HPLC). The following applies: for Area (HPLC): 1 h.
The nature of series [5]: Approximate solubility assessment of the free base by the solvent (aliquot) addition method. The following applies: for Solubility in words / solubility: RT; for solubility: thermodynamic from solid. How it is done:
The approximate solubility of the free base was assessed in several organic solvents (Table 17) by the solvent addition method. To about 5 mg of free base, aliquots of solvent were added until complete dissolution was observed or until a concentration […] was reached. Aliquots of 100 μL were used up to 2 mL, followed by aliquots of 1 mL up to 8 mL. […] Based on the solubility results, in some embodiments the crystallization solvents selected for salt formation were THF, ethanol and acetone.
The solubility assessment was performed according to the aliquot addition method and visually assessed. About 5 mg of free base was weighed into 8 mL glass vials. Aliquots of 100 μL were added up to 2 mL, followed by aliquots of 1 mL up to 8 mL. The experimental conditions are described in Table 21.

The mark [6] stands for this setting: oxalate salt thermocycling, HT-XRPD.
Where [7] appears, read: 0.2M phosphate buffer pH 6, 37° C., about 1 mg salt in 1 mL.
Where [8] appears, read: 0.2M phosphate buffer pH 6, 37° C., about 5 mg salt in 1 mL.
Where [9] appears, read: water, 37° C., about 1 mg salt in 1 mL.
The mark [10] stands for this setting: water, 37° C., about 5 mg salt, up to 1 mL.

In general, solubility refers to the dissolved amount per volume that the medium holds. On to `CN1CC[C@@H](c2c(O)cc(O)c3c(=O)cc(-c4ccc(C(F)(F)F)cc4Cl)oc23)[C@@H]1CO.CN1CC[C@@H](c2c(O)cc(O)c3c(=O)cc(-c4ccc(C(F)(F)F)cc4Cl)oc23)[C@@H]1CO.O.O=C(O)C(=O)O` [Oxa1], for which, in series [1] (oxalate salt cooling crystallization, form after drying under deep vacuum (5 mbar), label = ambient-dried form), the Vacuum entry is recorded as “Oxa1”. For the same molecule, the “Physical stability upon drying under deep/high vacuum” value in series [1] is listed as “physically stable”. In addition, in series [2] (40° C./75% RH, 2 days), the “Physical stability upon exposure to AAC” value is “stable when exposed to advanced aging conditions; also recorded: physically stable under short term stress conditions; also recorded: physically stable upon exposure to AAC for two days; also recorded: remained stable upon exposure to AAC”. For the same molecule, in series [2] (oxalate salt cooling crystallization solids, AAC (40° C./75% RH, 1 day)), the “Stability AAC” value is reported as “Stable”. Further, the “Solid forms Vacuum AAC” value in series [2] (setting [6]) is recorded as “Oxa1”. For the same molecule, the “Solid phase AAC (XRPD form after accelerated aging)” value in series [2] (precipitated solids of the salt screen, dried under vacuum at 50° C., 40° C./75% RH for 2 days, HT-XRPD) was “Oxa1”. Also, in series [2] (salt screen solids, 40° C./75% RH, 2 days), the “Stable during AAC” value was “Yes”. Moreover, the “Solubility in phosphate buffer” value in series [3] (0.2 M phosphate buffer pH 6, 37° C., 4 hours) worked out at 0.03 mg/mL. The solubility is on record as 0.02 mg/mL in series [3] (0.2M phosphate buffer pH 6, 37° C., 4 hours, about 1 mg salt in 1 mL); 0.03 mg/mL in series [3] (0.2M phosphate buffer pH 6, 37° C., 4 hours, about 5 mg salt in 1 mL); “hazy” in series [3] (water, 37° C., 4 hours, about 1 mg salt in 1 mL); “hazy” in series [3] (water, 37° C., 4 hours, about 5 mg salt, up to 1 mL). Moreover, in series [3] (0.2 M phosphate buffer pH 6, 37° C., 4 hours, XRPD), the “Solids recovered / salt dissociation after solubility determination in buffer” value is on record as “The salt had dissociated in the buffer”. For the same molecule, the “Form (4 h) of residual solid” value is “Am” in series [3] (setting [7]), “Free” in series [3] (setting [8]), “Free” in series [3] (setting [9]) and “Oxa1” in series [3] (setting [10]). Also, the “pH (4 h)” value in series [3] (setting [7]) is 6.0; in series [3] (setting [8]), 5.8; in series [3] (setting [9]), 4.4; in series [3] (setting [10]), 4.3. Besides, in series [3] (water, 37° C., 4 hours, XRPD), the “Solids recovered after solubility determination in water” value is reported as “The residual solids of the suspension were identical to Oxa1”.

`CN1CCC(c2c(O)cc(O)c3c(=O)cc(-c4ccc(C(F)(F)F)cc4Cl)oc23)C1CO.O=C(O)C(=O)O` (stereo not drawn) [Oxa2 + peaks]: the “Solid forms Vacuum” value in series [1] (oxalate salt thermocycling solids, label = ambient-dried form) was “Oxa2 + peaks”. The “Solid forms Ambient AAC” value in series [2] (oxalate salt thermocycling, ambient-dried solids after AAC (40° C./75% RH, 2 days), HT-XRPD) is “Oxa2 + peaks”. In series [2] (setting [6]), the “Solid forms Vacuum AAC” value is on record as “Oxa2 + peaks”.

Regarding `CN1CCC(c2c(O)cc(O)c3c(=O)cc(-c4ccc(C(F)(F)F)cc4Cl)oc23)C1CO.O=P(O)(O)O` (stereo not drawn) [Pho7], in series [1], the “Physical stability upon drying under deep/high vacuum” value is given as “remained physically stable”. The “Solid forms Vacuum” value in series [1] (phosphate salt thermocycling solids, label = ambient-dried form) is “Pho7”. In addition, the “Physical stability upon exposure to AAC” value in series [2] (40° C./75% RH, 2 days) is listed as “additional diffraction peaks were observed; also recorded: unstable upon exposure to AAC”.

The Solubility is how much of the substance goes into solution per volume. Turning to `CN1CC[C@@H](c2c(O)cc(O)c3c(=O)cc(-c4ccc(C(F)(F)F)cc4Cl)oc23)[C@@H]1CO` [Voruciclib, (+)-trans-2-(2-chloro-4-trifluoromethylphenyl)-5,7-dihydroxy-8-(2-hydroxymethyl-1-methylpyrrolidin-3-yl)-chromen-4-one], the “Area (HPLC)” value in series [4] (Acetone solution, 25° C.) is recorded as 1562.10 mAu*s; in series [4] (Acetone solution, 50° C.), 1566.22 mAu*s; in series [4] (Acetone solution, 80° C.) it was 1566.56 mAu*s; in series [4] (Ethanol solution, 25° C.) it was 1633.32 mAu*s; in series [4] (Ethanol solution, 50° C.) it was 1625.98 mAu*s; in series [4] (Ethanol solution, 80° C.), 1625.83 mAu*s. Also, the “Area (HPLC)” value came out at 1697.99 mAu*s in series [4] (Tetrahydrofuran solution, 25° C.); 1713.96 mAu*s in series [4] (Tetrahydrofuran solution, 50° C.); 1701.15 mAu*s in series [4] (Tetrahydrofuran solution, 80° C.). The “Thermal stability in solution” value in series [4] (THF, ethanol, acetone solutions, RT 24 h, 50° C. and 80° C. 1 h, HPLC purity) is “thermally stable in solution”. The “Solubility pH 6” value in series [3] (0.2M phosphate buffer (pH 6), 37° C., 4 hours, listed as Voruciclib Free base) is listed as 0.01 mg/mL. For the same molecule, the Solubility water in series [3] (water, 37° C., 4 hours, listed as Voruciclib Free base) is on record as <0.01 mg/mL. Also, the “Solubility at RT” value in series [5] (1,4-Dioxane) is on record as ~1 mg/mL (≈ 2.13 mM); in series [5] (2-Propanol), ~8 mg/mL (≈ 17 mM); in series [5] (Acetonitrile) it was ~5 mg/mL (≈ 10.6 mM); in series [5] (Chloroform), ~5 mg/mL (≈ 10.6 mM); in series [5] (Ethyl acetate), ~1 mg/mL (≈ 2.13 mM); in series [5] (Water), <1 mg/mL. Also, the Solubility in words result in series [5] (THF) is recorded as “soluble”; in series [5] (methanol, ethanol and acetone), “sparingly soluble”; in series [5] (water), “practically insoluble”. For the same molecule, the solubility was ~1 mg/mL (≈ 2.13 mM) in series [5] (organic solvent or mixture, 1,4-Dioxane, approximate, solvent addition, read-out: Solubility); ~8 mg/mL (≈ 17 mM) in series [5] (organic solvent or mixture, 2-Propanol, approximate, solvent addition, read-out: Solubility); 10 to 13 mg/mL (≈ 21.3 to 27.7 mM) in series [5] (organic solvent or mixture, Acetone, approximate, solvent addition, read-out: Solubility); ~5 mg/mL (≈ 10.6 mM) in series [5] (organic solvent or mixture, Acetonitrile, approximate, solvent addition, read-out: Solubility); ~5 mg/mL (≈ 10.6 mM) in series [5] (organic solvent or mixture, Chloroform, approximate, solvent addition, read-out: Solubility); 14 to 18 mg/mL (≈ 29.8 to 38.3 mM) in series [5] (organic solvent or mixture, Ethanol, approximate, solvent addition, read-out: Solubility). The solubility in series [5] (organic solvent or mixture, Ethyl acetate, approximate, solvent addition, read-out: Solubility) is ~1 mg/mL (≈ 2.13 mM); in series [5] (organic solvent or mixture, Methanol, approximate, solvent addition, read-out: Solubility), 17 to 26 mg/mL (≈ 36.2 to 55.3 mM); in series [5] (organic solvent or mixture, Tetrahydrofuran, approximate, solvent addition, read-out: Solubility), 30 to 60 mg/mL (≈ 63.9 to 128 mM); in series [5] (organic solvent or mixture, solvents other than THF, methanol, ethanol, acetone, read-out: Solubility in other solvents) it was < 10 mg/mL; in series [5] (Water, approximate, solvent addition, read-out: Solubility), < 1 mg/mL.
